Measurements taken from US11731972B2, “Spiro compounds as glycosidase inhibitors” (Asceneuron SA, priority 2018, dated 2023).

Target: His-Tagged hOGA (human O-GlcNAcase) (Homo sapiens (Human), UniProt O60502)
Assay: Human O-GlcNAcase enzyme inhibition assay (Example B01)
Type: biochemical
Settings: OGA enzyme inhibition assay; FL-GlcNAc substrate, 60 min, room temperature, pH 6.5
Procedure: Example B01: Human O-GlcNAcase Enzyme Inhibition Assay
5 μl of the appropriate concentration of a solution of inhibitor in McIlvaine's Buffer (pH 6.5) in 2% DMSO (for a dose response curve calculation) is added into each well of a 384-well plate (Greiner, 781900). Then, 20 nM of His-Tagged hOGA and 10 μM of FL-GlcNAc (Fluorescein mono-beta-D-(2-deoxy-2-N-acetyl) glucopyranoside; Marker Gene Technologies Inc, M1485) were added to the 384-well plate for a final volume of 20 μl. After incubation for 60 min at room temperature, the reaction was terminated by the addition of 10 μL of stop buffer (200 mM glycine, pH 10.75). The level of fluorescence (λexc 485 nm; (λemm 520 nm) was read on a PHERAstar machine. The amount of fluorescence measured was plotted against the concentration of inhibitor to produce a sigmoidal dose response curve to calculate an IC50. All individual data was corrected by subtraction of the background (Thiamet 3 uM=100% inhibition) whilst 0.5% DMSO was considered as the control value (no inhibition).

Sequence of His-Tagged hOGA (human O-GlcNAcase) (O60502 whole entry): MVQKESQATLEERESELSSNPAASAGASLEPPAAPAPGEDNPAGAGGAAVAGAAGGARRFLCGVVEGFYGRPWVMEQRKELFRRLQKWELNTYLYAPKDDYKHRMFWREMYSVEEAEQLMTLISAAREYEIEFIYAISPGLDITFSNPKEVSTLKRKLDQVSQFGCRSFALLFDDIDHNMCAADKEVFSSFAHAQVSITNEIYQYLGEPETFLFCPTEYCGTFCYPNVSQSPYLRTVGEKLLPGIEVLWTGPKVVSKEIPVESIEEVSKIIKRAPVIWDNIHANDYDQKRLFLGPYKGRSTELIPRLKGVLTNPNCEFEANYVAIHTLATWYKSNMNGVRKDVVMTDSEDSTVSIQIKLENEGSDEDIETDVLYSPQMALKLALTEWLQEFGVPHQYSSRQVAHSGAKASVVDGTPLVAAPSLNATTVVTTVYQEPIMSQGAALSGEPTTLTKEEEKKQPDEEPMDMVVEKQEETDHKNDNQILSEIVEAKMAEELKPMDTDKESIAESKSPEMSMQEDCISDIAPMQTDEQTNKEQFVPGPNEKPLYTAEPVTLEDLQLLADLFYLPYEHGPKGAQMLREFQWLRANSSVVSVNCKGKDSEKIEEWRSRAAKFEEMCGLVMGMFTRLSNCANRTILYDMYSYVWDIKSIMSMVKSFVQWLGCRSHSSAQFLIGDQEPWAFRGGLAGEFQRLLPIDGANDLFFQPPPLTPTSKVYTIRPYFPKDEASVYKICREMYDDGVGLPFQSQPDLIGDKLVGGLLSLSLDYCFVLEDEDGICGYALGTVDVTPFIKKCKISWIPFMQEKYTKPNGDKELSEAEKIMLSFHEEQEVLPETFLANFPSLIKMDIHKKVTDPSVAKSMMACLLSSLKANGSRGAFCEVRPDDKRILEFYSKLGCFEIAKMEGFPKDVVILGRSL

Row | Structure (SMILES) | IC50
1 | CC(=O)Nc1ncc(CN2CCC3(CC2)NC(=O)N(Cc2ccnc(C)c2)C3=O)s1 (racemic) [IA5] | < 50 nM
2 | CC(c1ccc2c(c1)OCC2)N1CCC2(CC1)C(=O)N(Cc1ccc(C#N)cc1)C(=O)N2Cc1ccc(C#N)cc1 (racemic) [Example 30, 4,4′-((8-(1-(2,3-dihydrobenzofuran-6-yl)ethyl)-2,4-dioxo-1,3,8-triazaspiro[4.5]decane-1,3-diyl)bis(methylene))dibenzonitrile] | 200 to 1000 nM
3 | CC(c1ccc2scnc2c1)N1CCC2(CC1)CN(c1cncnc1)C(=O)N2 (racemic) [Example 37, 8-(1-(benzo[d]thiazol-5-yl)ethyl)-3-(pyrimidin-5-yl)-1,3,8-triazaspiro[4.5]decan-2-one] | 50 to 200 nM
4 | CC(c1ccc2scnc2c1)N1CCC2(CC1)NC(=O)NC2=O (racemic) [Example 3, 8-(1-(benzo[d]thiazol-5-yl)ethyl)-1,3,8-triazaspiro[4.5]decane-2,4-dione] | 1000 to 10000 nM
5 | CC(c1ccc2c(c1)OCC2)N1CCC2(CC1)C(=O)Nc1ccccc12 (racemic) [Example 21, 1′-(1-(2,3-dihydrobenzofuran-6-yl)ethyl)spiro[indoline-3,4′-piperidin]-2-one] | 200 to 1000 nM
6 | CC(c1ccc2scnc2c1)N1CCC2(CC1)C(=O)N(Cc1ccc(C#N)cc1)C(=O)N2C (racemic) [Example 75] | 1000 to 10000 nM
7 | COCCN1C(=O)NC2(CCN(C(C)c3ccc4c(c3)OCC4)CC2)C1=O (racemic) [Example 6, 8-(1-(2,3-dihydrobenzofuran-6-yl)ethyl)-3-(2-methoxyethyl)-1,3,8-triazaspiro[4.5]decane-2,4-dione] | 50 to 200 nM
8 | CC(c1ccc2scnc2c1)N1CCC2(CC1)CN(c1ccc(C#N)cc1)C(=O)N2 (racemic) [Example 34, 4-(8-(1-(benzo[d]thiazol-5-yl)ethyl)-2-oxo-1,3,8-triazaspiro[4.5]decan-3-yl)benzonitrile] | 50 to 200 nM
9 | CC(c1ccc2scnc2c1)N1CCC2(CC1)CN(Cc1ccc(C#N)cc1)C(=O)N2 (racemic) [Example 32, 4-((8-(1-(benzo[d]thiazol-5-yl)ethyl)-2-oxo-1,3,8-triazaspiro[4.5]decan-3-yl)methyl)benzonitrile] | 50 to 200 nM
10 | CC(c1ccc2scnc2c1)N1CCC2(CC1)C(=O)N(Cc1ccc(C#N)cc1)C(=O)N2Cc1ccc(C#N)cc1 (racemic) [Example 23, 4,4′-((8-(1-(benzo[d]thiazol-5-yl)ethyl)-2,4-dioxo-1,3,8-triazaspiro[4.5]decane-1,3-diyl)bis(methylene))dibenzonitrile] | 200 to 1000 nM
11 | CC(c1ccc2scnc2c1)N1CCC2(CC1)CN(c1ccc(F)cc1)C(=O)N2 (racemic) [Example 36, 8-(1-(benzo[d]thiazol-5-yl)ethyl)-3-(4-fluorophenyl)-1,3,8-triazaspiro[4.5]decan-2-one] | 200 to 1000 nM
12 | Cc1cc(CN2C(=O)NC3(CCN(C(C)c4ccc5scnc5c4)CC3)C2=O)ccn1 (racemic) [Example 67] | 50 to 200 nM
13 | Cc1cc(CN2C(=O)NC3(CCN(C(C)c4ccc5scnc5c4)CC3)C2=O)cc(C)n1 (racemic) [Example 66] | 50 to 200 nM
14 | Cc1cc(N2CC3(CCN(C(C)c4ccc5scnc5c4)CC3)CC2=O)n2nccc2n1 (racemic) [Example 72] | 1000 to 10000 nM
15 | CC(c1ccc2c(c1)OCC2)N1CCC2(CC1)C(=O)N(c1ccc(C#N)cc1)C(=O)N2C (racemic) [Example 76] | 1000 to 10000 nM
16 | CC(c1ccc2scnc2c1)N1CCC2(CC1)NC(=O)N(Cc1ccc(C(F)(F)F)nc1)C2=O (racemic) [Example 8] | 50 to 200 nM
17 | CC(c1ccc2scnc2c1)N1CCC2(CC1)C(=O)N(Cc1ccc(S(C)(=O)=O)cc1)C(=O)N2C (racemic) [Example 77] | 1000 to 10000 nM
18 | CC(c1ccc2scnc2c1)N1CCC2(CC1)C(=O)N(c1ccc(C#N)cc1)c1ccccc12 (racemic) [Example 25, 4-(1′-(1-(benzo[d]thiazol-5-yl)ethyl)-2-oxospiro[indoline-3,4′-piperidin]-1-yl)benzonitrile] | 50 to 200 nM
19 | CC(c1ccc2scnc2c1)N1CCC2(CC1)C(=O)N(Cc1ccc(C#N)cc1)c1ccccc12 (racemic) [Example 29, 4-((1′-(1-(benzo[d]thiazol-5-yl)ethyl)-2-oxospiro[indoline-3,4′-piperidin]-1-yl)methyl)benzonitrile] | 200 to 1000 nM
20 | CC(c1ccc2scnc2c1)N1CCC2(CC1)NC(=O)N(c1cccc(S(C)(=O)=O)c1)C2=O (racemic) [Example 64] | 50 to 200 nM
21 | CC(c1ccc2c(c1)OCC2)N1CCC2(CC1)NC(=O)N(c1ccc(C#N)cc1)C2=O (racemic) [Example 12, 4-(8-(1-(2,3-dihydrobenzofuran-6-yl)ethyl)-2,4-dioxo-1,3,8-triazaspiro[4.5]decan-3-yl)benzonitrile] | < 50 nM
22 | CC(c1ccc2c(c1)OCC2)N1CCC2(CC1)NC(=O)N(Cc1ccc(C(F)(F)F)nc1)C2=O (racemic) [Example 9] | 50 to 200 nM

Row | Structure (SMILES) | IC50
23 | CC(=O)Nc1ncc(CN2CCC3(CC2)NC(=O)N(Cc2ccc(C(F)(F)F)nc2)C3=O)s1 [IA1] | 50 to 200 nM
24 | CC(=O)Nc1ncc(CN2CCC3(CC2)NC(=O)N(Cc2ccc(C)nc2)C3=O)s1 (racemic) [IA3] | 50 to 200 nM
25 | CC(c1ccc2scnc2c1)N1CCC2(CC1)CC(=O)N(Cc1ccc(S(C)(=O)=O)cc1)C2 (racemic) [Example 17, 8-(1-(benzo[d]thiazol-5-yl)ethyl)-2-(4-(methylsulfonyl)benzyl)-2,8-diazaspiro[4.5]decan-3-one] | 1000 to 10000 nM
26 | CC(c1ccc2c(c1)OCC2)N1CCC2(CC1)NC(=O)N(Cc1cncnc1)C2=O (racemic) [Example 4, 8-(1-(2,3-dihydrobenzofuran-6-yl)ethyl)-3-(pyrimidin-5-ylmethyl)-1,3,8-triazaspiro[4.5]decane-2,4-dione] | 50 to 200 nM
27 | CC(=O)Nc1ncc(CN2CCC3(CC2)NC(=O)N(Cc2cc(C)nc(C)c2)C3=O)s1 (racemic) [IA4] | < 50 nM
28 | COCCN1C(=O)NC2(CCN(C(C)c3ccc4scnc4c3)CC2)C1=O (racemic) [Example 7, 8-(1-(benzo[d]thiazol-5-yl)ethyl)-3-(2-methoxyethyl)-1,3,8-triazaspiro[4.5]decane-2,4-dione] | 200 to 1000 nM
29 | CC(c1ccc2scnc2c1)N1CCC2(CC1)NC(=O)N(Cc1cncnc1)C2=O (racemic) [Example 5] | 50 to 200 nM
30 | CC(c1ccc2scnc2c1)N1CCC2(CC1)CC(=O)N(c1ncccn1)C2 (racemic) [Example 73] | 1000 to 10000 nM
31 | CC(c1ccc2scnc2c1)N1CCC2(CCN(Cc3ccc(C#N)cc3)C2=O)CC1 (racemic) [Example 26, 4-((8-(1-(benzo[d]thiazol-5-yl)ethyl)-1-oxo-2,8-diazaspiro[4.5]decan-2-yl)methyl)benzonitrile] | 200 to 1000 nM
32 | CC(c1ccc2scnc2c1)N1CCC2(CC1)NC(=O)N(Cc1ccc(C#N)cc1)C2=O (racemic) [Example 22, 4-((8-(1-(benzo[d]thiazol-5-yl)ethyl)-2,4-dioxo-1,3,8-triazaspiro[4.5]decan-3-yl)methyl)benzonitrile] | 50 to 200 nM
33 | CC(c1ccc2scnc2c1)N1CCC2(CC1)CCN(S(C)(=O)=O)C2 (racemic) [Example 31, 5-(1-(2-(methylsulfonyl)-2,8-diazaspiro[4.5]decan-8-yl)ethyl) benzo[d]thiazole] | 1000 to 10000 nM
34 | CC(c1ccc2scnc2c1)N1CCC2(CCN(c3ccc(C#N)cc3)C2)CC1 (racemic) [Example 28, 4-(8-(1-(benzo[d]thiazol-5-yl)ethyl)-2,8-diazaspiro[4.5]decan-2-yl) benzonitrile] | 200 to 1000 nM
35 | CC(c1ccc2c(c1)OCC2)N1CCC2(CC1)NC(=O)N(C)C2=O (racemic) [Example 2, 8-(1-(2,3-dihydrobenzofuran-6-yl)ethyl)-3-methyl-1,3,8-triazaspiro[4.5]decane-2,4-dione] | 200 to 1000 nM
36 | Cc1ccc(N2C(=O)NC3(CCN(C(C)c4ccc5scnc5c4)CC3)C2=O)cn1 (racemic) [Example 61] | 50 to 200 nM
37 | CC(c1ccc2scnc2c1)N1CCC2(CC1)NC(=O)N(c1ccc(C#N)cc1)C2=O (racemic) [Example 13, 4-(8-(1-(benzo[d]thiazol-5-yl)ethyl)-2,4-dioxo-1,3,8-triazaspiro[4.5]decan-3-yl)benzonitrile] | 50 to 200 nM
38 | Cc1cc(N2C(=O)NC3(CCN(C(C)c4ccc5scnc5c4)CC3)C2=O)cc(C)n1 (racemic) [Example 60] | < 50 nM
39 | CC(c1ccc2scnc2c1)N1CCC2(CC1)C(=O)N(Cc1ccc(S(C)(=O)=O)cc1)C(=O)N2Cc1ccc(S(C)(=O)=O)cc1 (racemic) [Example 24, 8-(1-(benzo[d]thiazol-5-yl)ethyl)-1,3-bis(4-(methylsulfonyl)benzyl)-1,3,8-triazaspiro[4.5]decane-2,4-dione] | 200 to 1000 nM
40 | CC(c1ccc2c(c1)OCC2)N1CCC2(CC1)CC(=O)N(c1ccc(C#N)cc1)C2 (racemic) [Example 19, 4-(8-(1-(2,3-dihydrobenzofuran-6-yl)ethyl)-3-oxo-2,8-diazaspiro[4.5]decan-2-yl)benzonitrile] | 1000 to 10000 nM
41 | CC(c1ccc2c(c1)OCC2)N1CCC2(CC1)NC(=O)N(Cc1ccc(S(C)(=O)=O)cc1)C2=O (racemic) [Example 11] | < 50 nM
42 | CC(c1ccc2scnc2c1)N1CCC2(CC1)NC(=O)N(c1ccc(F)cc1)C2=O (racemic) [Example 63] | 50 to 200 nM
43 | CC(c1ccc2scnc2c1)N1CCC2(CC1)NC(=O)N(c1ccc(Cl)cc1)C2=O (racemic) [Example 65] | 50 to 200 nM
44 | CC(=O)Nc1ncc(CN2CCC3(CC2)NC(=O)N(c2cc(C)nc(C)c2)C3=O)s1 (racemic) [IA2] | 50 to 200 nM
